The values below are quoted from earlier work in patent US20240239832A1, “A PROCESS FOR THE PREPARATION OF N4-HYDROXYCYTIDINE AND ITS DERIVATIVES” (priority 2021, published 2024).

Series [1] has as its system SARS-CoV-2. The note with it: Vero cells; read-out: IC50, inhibition of replication of SARS-CoV-2.
For series [2], the system named is acute respiratory syndrome coronavirus (SARS-CoV). The settings on record: read-out: IC50, inhibition of replication of SARS-CoV.
The subject of series [3] is Venezuelan equine encephalitis virus (VEEV) TC-83. The settings on record: read-out: EC50, reduction of viral titers of VEEV TC-83.
In series [4] the test system is Middle East respiratory syndrome coronavirus (MERS-CoV). The note with it: read-out: IC50, inhibition of replication of MERS-CoV.
The test system of series [5] is remdesivir-resistant strains of the model CoV mouse hepatitis virus (MHV). The note with it: infected DBT cells.

SMILES strings stand for the structures. pEC50, pIC50: −log10 of the molar value.

The pIC50 is the negative decadic logarithm of the IC50, by convention in mol/L. Broadly, the pEC50 is the EC50 on a negative log10 scale, so that one unit is a factor of ten. In the case of `O=c1nc(NO)ccn1[C@@H]1O[C@H](CO)[C@@H](O)[C@H]1O` [EIDD-1931, 1-(3,4-dihydroxy-5-(hydroxymethyl)tetrahydrofuran-2-yl)-4-(hydroxyamino)pyrimidin-2(1H)-one], the pIC50 in series [1] is 6.52; in series [2], 7.00; in series [4], 6.82. Besides, the pEC50 in series [3] is 6.37. Further, in series [5], the “reduction of viral titers of remdesivir-resistant MHV” value is “reduces viral titers”.
